Experimental data reported in PubChem BioAssay (NCI).
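How tested: cells in 96-well plates exposed to compound for 48 hours at five concentrations. Abbreviation: GI50, concentration required for 50% inhibition of growth. TGI: concentration producing complete growth inhibition.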

Columns and labels:
Experiment in all cases: NCI-60 cell line screen, 48 h
SF-268 CNS = tested on: SF-268 CNS
BT-549 breast = tested on: BT-549 breast
OVCAR-5 ovarian = tested on: OVCAR-5 ovarian
DU-145 prostate = tested on: DU-145 prostate
OVCAR-4 ovarian = tested on: OVCAR-4 ovarian
SK-MEL-5 melanoma = tested on: SK-MEL-5 melanoma
NCI-H460 lung = tested on: NCI-H460 lung
UACC-257 melanoma = tested on: UACC-257 melanoma
HS 578T breast = tested on: HS 578T breast
COLO 205 colon = tested on: COLO 205 colon

Compound	TGI (SF-268 CNS)	TGI (BT-549 breast)	TGI (OVCAR-5 ovarian)	TGI (DU-145 prostate)	TGI (OVCAR-4 ovarian)	TGI (SK-MEL-5 melanoma)	TGI (NCI-H460 lung)	TGI (UACC-257 melanoma)	TGI (HS 578T breast)	TGI (COLO 205 colon)	GI50 (OVCAR-5 ovarian)	GI50 (OVCAR-4 ovarian)	GI50 (NCI-H460 lung)
CSc1c(C#N)c(N)n(-c2ccc(C)cc2)c(=O)c1C#N	> 100 µM	> 100 µM	> 100 µM	> 100 µM	> 100 µM	> 100 µM	> 100 µM	> 100 µM	> 100 µM	> 100 µM			
CC12CCC3C(CCC4CC(OC(=O)Cc5ccc(N(CCCl)CCCl)cc5)CCC43C)C1CCC(=O)N2 (configuration not stated)	31.1 µM				29.3 µM	33.3 µM	22.4 µM			31.1 µM			
COc1cc2nc(-c3cccs3)oc(=O)c2cc1OC	> 100 µM	> 100 µM	> 100 µM	> 100 µM	> 100 µM	> 100 µM	> 100 µM	> 100 µM	> 100 µM	> 100 µM			
C(/C=C(\Nc1ccccc1)C12CC3CC(CC(C3)C1)C2)=Nc1ccccc1	41.1 µM	31.6 µM	34.5 µM	56.7 µM	48.8 µM	28 µM	62.6 µM	73.3 µM	> 100 µM	32.6 µM			
O=c1[nH]cnc2c1ncn2[C@@H]1C[C@@H]1CO	> 100 µM	> 100 µM	> 100 µM	> 100 µM	> 100 µM	> 100 µM	> 100 µM	> 100 µM	> 100 µM	> 100 µM			
Cn1ccnc1C(O)(c1nccn1C)c1nccn1C	> 100 µM		> 100 µM		> 100 µM	> 100 µM	> 100 µM	> 100 µM		> 100 µM			
CC(=O)O[C@H]1C(=O)[C@@]2(C)[C@H]([C@H](OC(=O)c3ccc(F)cc3)[C@]3(O)C[C@H](OC(=O)[C@H](O)[C@@H](NC(=O)c4ccccc4)c4ccccc4)C(C)=C1C3(C)C)[C@]1(OC(C)=O)CO[C@@H]1C[C@@H]2O	> 25 µM	> 25 µM	> 11.5 µM	2.31 µM	> 25 µM	> 9.33 µM		> 25 µM	0.0559 µM	> 25 µM			
O=C1CC(C(O)(C(F)(F)F)C(F)(F)Cl)CCC1C(O)(C(F)(F)F)C(F)(F)Cl (configuration not stated)	> 10 µM	> 10 µM	> 10 µM	> 10 µM	> 10 µM	> 10 µM	> 10 µM	> 10 µM	> 10 µM	> 10 µM			
Nc1ccc(-c2nc3ccccc3s2)cc1C(F)(F)F	30.4 µM	26.4 µM	32.2 µM	29.2 µM	32.9 µM	30.6 µM	28.5 µM	29 µM	43.5 µM	36.7 µM	17.5 µM	15.9 µM	14.6 µM
O=C(NCCCN(CCCCN(CCCNC(=O)C(F)(F)F)Cc1ccc2ccccc2c1)Cc1ccc2ccccc2c1)C(F)(F)F	> 100 µM	> 100 µM	> 100 µM	> 100 µM	> 100 µM	3.38 µM	23.7 µM	4.58 µM					
Cc1ccc(CC[P+](=O)CCc2ccc(C)nc2)cn1	> 100 µM		> 100 µM	> 100 µM	> 100 µM	> 100 µM	> 100 µM	> 100 µM	> 100 µM	> 100 µM			
O=C(Oc1cc(=O)c(OC(=O)c2ccccc2)co1)c1ccccc1	> 100 µM	> 100 µM	> 100 µM	> 100 µM	> 100 µM	> 100 µM	> 100 µM	> 100 µM	> 100 µM	> 100 µM			
S=C(/N=c1\sc(Nc2ccc(Cl)cc2)nc2sc3c(c12)CCN(N1CCc2c(sc4nc(Nc5ccc(Cl)cc5)s/c(=N\C(=S)Nc5ccc(Cl)cc5)c24)C1)C3)Nc1ccc(Cl)cc1	> 100 µM	> 100 µM	54.2 µM	64.6 µM			> 100 µM	> 100 µM	> 100 µM	> 100 µM			
O=C(Cc1ccccc1)NN1C(=O)/C(=C\c2ccccc2)SC1=Nc1ccccc1	> 100 µM	> 100 µM	> 100 µM	> 100 µM	> 100 µM	> 100 µM	> 100 µM	> 100 µM	> 100 µM	> 100 µM			
CC1(C)C2CC(=O)C1(C)C(O)C2Br (configuration not stated)	> 100 µM	> 100 µM	> 100 µM	> 100 µM		> 100 µM	> 100 µM		> 100 µM				
COc1c(O)c2c3c(c(C)cc(O)c3c1O)C(=O)C(O)(C(C)(C)C(C)=O)C2=O (configuration not stated)	> 100 µM		> 100 µM		> 100 µM	> 100 µM	> 100 µM	> 100 µM		> 100 µM			
c1ccc2c(c1)c1c(n2CCOCCN2CCOCC2)CCCC1	> 100 µM		> 100 µM	> 100 µM	86.8 µM	48.9 µM	> 100 µM	47.8 µM	> 100 µM				
CCc1c[n+]([O-])c(C)cc1[N+](=O)[O-]	> 100 µM	> 100 µM	> 100 µM	> 100 µM		> 100 µM	63.5 µM	> 100 µM	> 100 µM	29.6 µM			
Cc1c(N2C(=O)C(Cl)C2c2ccc(Cl)cc2)c(=O)n(-c2ccccc2)n1C (configuration not stated)	> 100 µM	> 100 µM	> 100 µM	> 100 µM	> 100 µM	> 100 µM	> 100 µM	48.1 µM		> 100 µM			
CCOC(=O)c1c(-c2ccccc2)c(-c2ccccc2)cn1C	> 10 µM	> 10 µM	> 10 µM	> 10 µM	> 10 µM		> 10 µM	> 10 µM	> 10 µM				
NNC1=N/C(=C\c2ccco2)C(Cl)=N1	> 100 µM		> 100 µM	> 100 µM	75.8 µM	> 100 µM		> 100 µM	> 100 µM	> 100 µM			
CCN1CCCC(NCc2c3ccccc3c(CNC3CCCN(CC)C3)c3ccccc23)C1 (configuration not stated)	38.4 µM		19.8 µM		18 µM	27.4 µM	18.3 µM	26.4 µM		12.7 µM			
